Data on four compounds can be found in US20180332879A1, “AGENT FOR IMPROVING AFTERTASTE HAVING HIGH INTENSITY SWEETENERS” (NAGAOKA CO., LTD., priority 2017, published 2018).

Assay [1] can be described thus: Sweetness degree and taste characteristics of sweetener solutions equivalent to 8% by mass aqueous sugar solution. The conditions noted are these: intensity of sweetness, sweetness degree of sugar defined as 1. On the procedure:
Solutions, each having a sweetness degree corresponding to an 8% by mass aqueous sugar solution, were prepared using the various high-intensity sweeteners shown in Table 1. In Table 1, each of the sweetness degrees represents the intensity of sweetness wherein the sweetness degree of sugar is defined as 1, and each of the concentrations represents the concentration of a high-intensity sweetener in the solution.

A short description of assay [2]: Sensory evaluation by seven panelists: improvement of the quality of sweetness and impure taste of a high-intensity sweetener solution after adding the improving agent. The note with it: summary of Table 2. How it is done: The resultant solution 1 (an aspartame solution) in Preparation Example 3 was added the resultant solution in Preparation Example 1 in an amount of 0.033% by mass. The concentration of isobutyl angelate added to the solution 1 was 0.0099 ppm by mass. The taste of the solution 1 having isobutyl angelate added thereto was evaluated by the following method.
The solution 1 (without addition of isobutyl angelate) was tasted by seven panelists (one twenty-something male, one thirty-something male, one forty-something male, one fifty-something male, one sixty-something male, and one twenty-something female and one thirty-something female). Subsequently, the seven panelists rinsed their mouths sufficiently, and then the solution 1 containing isobutyl angelate (with addition of isobutyl angelate) was tasted by the seven panelists. The panelists compared the isobutyl-angelate-free solution with the isobutyl-angelate-added solution, and then determined whether or not the quality of sweetness and the impure taste of the isobutyl-angelate-added solution were improved compared with the isobutyl-angelate-free solution in accordance with the following criteria. When the sum total of the scores determined by the seven panelists was 10 points or greater, it was determined that the quality of sweetness and the impure taste were improved. […]

Residues, ends and D or L forms follow the SMILES beside them.

On to `CC1=CC(=O)NS(=O)(=O)O1` [Acesulfame potassium], for which the Sweetness degree in assay [1] is given as 200 times. `COC(=O)[C@H](Cc1ccccc1)NC(=O)[C@@H](N)CC(=O)O` [Aspartame] (H-Asp-Phe-OMe): the Sweetness degree in assay [1] was found to be 200 times. Still for that read-out and setting: the value for `OC[C@H]1O[C@H](O[C@]2(CCl)O[C@H](CCl)[C@@H](O)[C@@H]2O)[C@H](O)[C@@H](O)[C@H]1Cl` [Sucralose] was 600 times. With `C/C=C(/C)C(=O)OCC(C)C` [isobutyl angelate, Isobutyl angelate], in assay [2], the “Unpleasant aftertaste and impure taste (harsh, astringent) of a high-intensity sweetener in a solution” value was “can be improved”.
